We go through four compounds from PMC8910920 (International Journal of Molecular Sciences, 2022).

The target of data set [1] is T1, rTRPM8 (Rattus norvegicus, UniProt Q8R455).
T1 construct: expressed in transfected cells
The arrangement: method as in PMID 32843690. The conditions noted are these: reference antagonist value; ref [31]; read-out: rTRPM8 IC50, Ca2+ microfluorography; cited from earlier work.

Data set [2] deals with T1, rTRPM8. Kind of data set: Ca2+ microfluorography assay, HEK293 cells expressing rTRPM8, menthol activation. The format is cell-based. The settings on record: HEK293-rTRPM8, 100 μM menthol. Here is the method:
This represents a similar activity as β–lactam 2 and a somewhat higher potency than the model TRPM8 antagonists AMTB.
To measure the effect of the compounds against TRPM8 activity we used microfluorometry-based calcium flux assays with Fluo-4 NW Ca^2+ dye and fluorescence as described in [30]. Briefly, human embryonic kidney cell line (HEK293) cells stably transfected with rTRPM8 or hTRPM8 were seeded in 96-well plates at a cell density of 30,000 cells. After 2 days the medium was replaced with 100 μL of the dye, Fluo-4 NW, loading solution supplemented with probenecid 2.5 mM and incubated 1 h at 37 °C. The TRPM8 activity was measured using POLASTAR plate reader (BMG Labtech) setting the excitation wavelength at 485 nm and the emission wavelength at 520 nm. The baseline fluorescence was recorded for 3 cycles before the addition of vehicle compound at different concentrations and the antagonist, 10 μM AMTB. Fluorescence intensity was recorded during 7 more cycles and 100 μM menthol was added. Fluorescence intensity was recorded during 10 more cycles.
Data analysis: The Z-factor was calculated in each assay using the following equation: […]. In all the experiments, the Z-factor was ≥0.5. The effect of the compounds against TRPM8 activity was determined by normalizing their effect on the maximum fluorescence observed after application of 100 μM menthol. Decrease in menthol signal was expressed as percentage of inhibition (%). All data are expressed as the mean ± standard deviation (SD). Data are expressed as the concentration exerting a half-maximal inhibition of agonist-induced [Ca^2+]i elevation (IC50), which was calculated again using GraphPad Prism® software. All determinations were performed in triplicate (n = 3) in 3 independent experiments (N = 3).

Data set [3] deals with OXA-induced cold hypersensitivity in male mice. The arrangement: method as in PMID 32843690. The settings on record: ref [31]; cited from earlier work.
In data set [4] the target is T1, rTRPM8. Kind of data set: Whole-cell patch-clamp, HEK293-rTRPM8 cells. The data set is classed as cell-based. The conditions noted are these: HEK293-rTRPM8, 100 μM menthol, holding voltage −60 mV. The protocol: To confirm the antagonistic activity, electrophysiology (patch-clamp) studies were performed on HEK293 cells expressing the rTRPM8 channel. […] Then, using a holding voltage of −60 mV, different concentrations of RGM8-51 were used to establish the concentration/response curve for rTRPM8 current blockade.
Whole-cell patch-clamp recordings from HEK293-rTRPM8 cells were carried out 2 days after seeding on 12 mm Ø glass coverslips treated with poly-L-lysine solution (Sigma Aldrich, Spain); the intracellular pipette solution contained (in mM) 150 NaCl, 5 EGTA, 3 MgCl2 and 10 HEPES, adjusted to pH 7.2 with NaOH, and the extracellular solution contained (in mM) 150 NaCl, 6 CsCl, 1.5 CaCl2, 1 MgCl2, 10 D-glucose and 10 HEPES, adjusted to pH 7.4 with NaOH. The TRPM8 activity was measured by the application of two pulses of 100 μM menthol in a time interval of 2 min and a 30 s perfusion of the different compound concentrations before the second menthol pulse.
Data were sampled at 10 kHz (EPC10 amplifier with PatchMaster 2.53 software, HEKA Electronics, Lambrecht, Germany) and low-pass filtered at 3 kHz for analysis (PatchMaster 2.53 and GraphPad Prism 6.0, Graphpad Software, San Diego, CA, USA). The series resistance was <10 MΩ and to minimize voltage errors was compensated by 60–80%. […] Cell capacitance was measured and used to estimate the current density (J, pA/pF).
Data analysis: For the whole-cell patch-clamp experiments, results are expressed as the percentage of remaining activation of the TRPM8 channel. This is calculated by normalizing the ratio (p2/p1) of testing conditions to the ratio (p2/p1) of the control condition. […] All data are expressed as the mean ± standard error of the mean (SEM) (n = 5–8). In the current-clamp experiments, the change in membrane potential is expressed as the difference between the resting membrane potential and the membrane potential after the addition of a stimuli. Data were analyzed as previously described (GraphPad 6.0, one-way ANOVA followed by Bonferroni multiple comparisons test, and ROUT method, Q = 10%).
On the technique in general: Patch clamp records ionic current or voltage across a cell membrane.

Data set [5] relates to CACO-2 cell monolayers. The experiment in a line: Caco-2 permeability. The data set is classed as in vitro ADME. The conditions noted are these: CACO-2 cell monolayer. Here is the method:
These studies were subcontracted to Eurofins-CEREP or Eurofins-PANLABS. Briefly, agonists and antagonist assays were performed in cell cultures overexpressing the corresponding channel (CHO: TRPV1 and TRPA1; HEK293: TRPV3 and ASIC3). In vitro pharmacology, cellular channel functional assays: the compound was prepared in assay buffer to the final concentration, 10 μM. The compound wells, reference agonist and background vehicle controls were prepared in DMSO at 0.3%. The reference agonist for each Ion Channel assayed was prepared in a similar manner to serve as the assay control. The reference agonist for each Ion Channel was included at Emax (the concentration where the reference agonist elicited a maximal response). The agonist assay was conducted on fluorimeter instruments where the test compound, vehicle controls, and reference agonist were added to the assay plate after a fluorescence baseline was established. The agonist assay was used to assess each compound’s ability to activate each Ion Channel assayed. For the antagonist assay, the compound was pre-incubated for five minutes at room temperature, and then challenged with the EC80 concentration of the reference agonist after establishment of a fluorescence baseline. Vehicle controls and EC80 concentration of reference agonist were added to appropriate wells. The antagonist assay was used to assess each compound’s ability to inhibit activation by the corresponding Ion Channel agonist. ASIC3 ionflux antagonist assay: all recordings were obtained from a holding potential of -60 mV. The compound addition sequence was as follows: one addition of pH5.5 buffer was added to establish the baseline response, the test concentration of compound was applied for 30 s, followed by the addition of pH5.5 of compound for 2 s. Binding assays were performed in CHO cell cultures overexpressing human CGRPR, CB2 and M2 receptors. RGM8-51 (10 μM) was tested, and reference compounds used as control agonists and antagonists are detailed in Table 2, footnote. Binding assay results are expressed as a percent of control specific binding. […] Aqueous solubility (μM) was determined by comparing the peak area of the principal peak in a calibration standard (200 μM) containing organic solvent (methanol/water, 60/40, v/v) with the peak area of the corresponding peak in a buffer sample. Partition coefficient: the total amount of compound was determined as the peak area of the principal peak in a calibration standard (100 μM) containing organic solvent (methanol/water, 60/40, v/v). The amount of compound in buffer was determined as the combined, volume-corrected, and weighted areas of the corresponding peaks in the aqueous phases of three organic-aqueous samples of different composition. An automated weighting system was used to ensure the preferred use of raw data from those samples with well quantifiable peak signals. The amount of compound in organic phase was calculated by subtraction. Subsequently, Log D was calculated as the Log10 of the amount of compound in the organic phase divided by the amount of compound in the aqueous phase. […] Permeability was measured in CACO-2 monolayers. Percentage of compounds in the receptors wells was measured using HPLC. […] In vitro metabolism was measured in human liver microsomes. […] The apparent intrinsic clearance (CLint, in μL/min/mg) was calculated from the half-life time.
In general terms: Passage across Caco-2 layers is used to estimate intestinal permeability.

The subject of data set [6] is serum proteins. The experiment in a line: Protein binding. The format is in vitro ADME, human.

Read-outs that look alike come from different tables or passages of the source.

T1 sequence (Q8R455 whole entry): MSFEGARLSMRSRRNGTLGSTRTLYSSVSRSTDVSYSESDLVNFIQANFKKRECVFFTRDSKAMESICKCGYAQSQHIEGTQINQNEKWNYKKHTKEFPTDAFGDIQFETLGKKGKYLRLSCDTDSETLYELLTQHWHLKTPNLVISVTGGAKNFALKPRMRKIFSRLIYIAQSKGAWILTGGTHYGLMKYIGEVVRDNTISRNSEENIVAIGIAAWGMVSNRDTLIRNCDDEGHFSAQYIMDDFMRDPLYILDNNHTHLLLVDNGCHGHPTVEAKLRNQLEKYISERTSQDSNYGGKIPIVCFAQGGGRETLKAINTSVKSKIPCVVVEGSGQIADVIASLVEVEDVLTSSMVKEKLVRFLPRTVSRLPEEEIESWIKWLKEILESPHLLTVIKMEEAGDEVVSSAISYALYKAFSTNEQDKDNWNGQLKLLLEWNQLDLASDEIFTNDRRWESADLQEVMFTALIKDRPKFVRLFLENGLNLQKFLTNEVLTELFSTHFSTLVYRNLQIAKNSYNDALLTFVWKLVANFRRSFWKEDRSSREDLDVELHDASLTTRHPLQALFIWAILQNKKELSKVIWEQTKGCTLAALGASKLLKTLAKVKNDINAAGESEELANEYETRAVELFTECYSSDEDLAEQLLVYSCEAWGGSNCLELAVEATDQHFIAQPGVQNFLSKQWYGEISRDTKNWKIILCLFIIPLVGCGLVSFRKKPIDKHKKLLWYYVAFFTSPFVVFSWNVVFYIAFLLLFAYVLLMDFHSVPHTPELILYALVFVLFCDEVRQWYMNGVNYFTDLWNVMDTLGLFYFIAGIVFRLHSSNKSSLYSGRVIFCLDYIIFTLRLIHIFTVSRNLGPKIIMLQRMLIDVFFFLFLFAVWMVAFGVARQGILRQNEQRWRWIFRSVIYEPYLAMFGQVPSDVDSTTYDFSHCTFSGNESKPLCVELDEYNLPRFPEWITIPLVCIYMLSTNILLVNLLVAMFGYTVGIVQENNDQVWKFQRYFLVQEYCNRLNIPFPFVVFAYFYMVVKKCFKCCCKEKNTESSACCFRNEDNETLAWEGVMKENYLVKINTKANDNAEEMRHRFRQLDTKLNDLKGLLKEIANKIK

In general, IC50 refers to the concentration needed to halve the response being measured. Take `Cc1cccc(COc2ccccc2C(=O)N(CCCN)Cc2cccs2)c1` [AMTB]: the 50% inhibitory concentration (IC50) in data set [1] was 7.3 ± 1.5 µM.

For the compound `C[C@@H]1C(=O)N(C[C@H](Cc2ccccc2)NC(=O)OCc2ccccc2)[C@]1(Cc1ccccc1)C(=O)OCc1ccccc1` [Compound 2, reference compound], the half-maximal inhibitory concentration (IC50) in data set [2] came out at 3.1 ± 1.1 µM; in data set [4], 0.9 ± 1 µM. Further, the “relief of oxaliplatin-induced cold hypersensitivity” value in data set [3] is “significant activity”.

`CC(C)NCC(O)COc1cccc2ccccc12` (stereo not shown) [Propanolol, reference compound]: the “Permeability B-A (%)” value in data set [5] is given as 74%. Also, in data set [5] (percentage of compound in the acceptor cell), the “Permeability A-B (%)” value was found to be 70%.

As for `CC(=O)CC(c1ccccc1)c1c(O)c2ccccc2oc1=O` (stereo not shown) [Warfarin, reference compound], the “Binding to proteins (%)” value in data set [6] is recorded as 99%.
